Measurements from patent publication US20250368952A1, “Methods for Culturing Organoids” (Cellesce Limited, priority 2016, published 2025).
Entries after “also recorded” stand apart in the source; their conditions may differ.

Test system: ISO50 (Isolation number 50) colorectal cancer organoids
Test: Drug titration assay on colorectal cancer organoids cultured in a fed-plate bioreactor (confocal imaging, morphometric analysis)
Assay type: cell-based
Settings: 5 days
Experimental: ISO50 (Isolation number 50) colorectal cancer organoids were cultured in a fed-plate bioreactor for 3 days, recovered from the MATRIGEL™ and stored frozen at −80° C. They were subsequently revived and used to seed a 384-well plate at a density of 350 organoids per well in 12 μl MATRIGEL™. The organoids were fed with 25 μl growth medium containing 0-2.5 μM MK1775, a WEE1 inhibitor (8 replicates). After 5 days, the organoids were fixed and stained with Hoechst (blue fluorescent stain specific for DNA i.e. nuclei of eukaryotic cells) and phalloidin (pink stain for F-actin). […] The actin filaments are spread throughout the structures, but are more concentrated in the lumen, in the centre of the organoid. Representative organoids are pictured from selected wells at each concentration. The overall shape of organoids in an untreated culture, or at low concentrations of inhibitor, can vary from round and cyst-like to convoluted and branched. […] Morphometric analysis of over 1000 parameters of the organoids confirmed the observations of toxicity.

## C=CCn1c(=O)c2cnc(Nc3ccc(N4CCN(C)CC4)cc3)nc2n1-c1cccc(C(C)(C)O)n1 [MK1775]
0-2.5 μM in growth medium, 384-well plate, 350 organoids per well, 8 replicates, FIG. 3A
  Organoid morphology (confocal imaging, Hoechst and phalloidin staining): cells are shed from the outer layer of the organoid, leading to a loss in complexity and a decrease in the overall size; also recorded: cells are shed from the outer layer of the organoid, leading to a loss of complexity and a decrease in the overall size
0-2.5 μM, FIG. 3B
  Apoptotic nuclei (morphometric analysis): increase with drug concentration
  Nuclei roundness (due to swelling before apoptosis; morphometric analysis): increase with drug concentration
  Organoid size (morphometric analysis): decreases with increasing concentrations of inhibitor
